Bounds are passed on as bounds.

The subject of this test is Secretion of ApoB. Kind of test: Quantification of the secretion of ApoB in HepG2 cells. It is filed as cell-based. The conditions noted are these: Homo sapiens, HepG2, 24 h, 24 hours of incubation with test compound, immunoprecipitation of apoB from medium, read-out: pIC50 value (=-log IC50 value), secretion of ApoB (converted). How it is done: HepG2 cells were cultured in 24-well plates in MEM Rega 3 containing 10% fetal calf serum. At 70% confluency, the medium was changed and the test compound or carrier (DMSO, 0.4% final concentration) was added. After 24 hours of incubation, the medium was transferred to Eppendorf tubes and cleared by centrifugation. A sheep antibody directed against either apoB was added to the supernatant and the mixture was kept at 8° C. for 24 hours. Then, rabbit anti-sheep antibody was added and the immune complex was allowed to precipitate for 24 hours at 8° C. The immunoprecipitate was pelleted by centrifugation for 25 minutes at 1320 g and washed twice with a buffer containing 40 mM Mops, 40 mM NaH2PO4, 100 mM NaF, 0.2 mM DTT, 5 mM EDTA, 5 mM EGTA, 1% Triton-X-100, 0.5% sodium deoxycholate (DOC), 0.1% SDS, 0.2 μM leupeptin and 0.2 μM PMSF. Radioactivity in the pellet was quantified by liquid scintillation-counting. The IC50 values are usually converted to pIC50 values (=−log IC50 value) for ease of use.
On to `CCOC(=O)[C@H](c1ccccc1)N1CCN(c2ccc(-n3ccn([C@H](C)c4ccccc4)c3=O)cc2)CC1` (relative stereo) [Compound 267], for which the concentration for half-maximal inhibition (IC50) was below 31.6 nM.
As for `CCOC(=O)[C@H](c1ccccc1)N1CCN(c2ccc(-n3ccn([C@H](C)c4ccc(F)cc4)c3=O)cc2)CC1` (relative stereo) [Compound 268], the figure is 31.6 to 316 nM; as for `CCOC(=O)[C@H](c1ccccc1)N1CCN(c2ccc(-n3ccn([C@H](C)c4cccc(C(F)(F)F)c4)c3=O)cc2)CC1` (relative stereo) [Compound 269], 31.6 to 316 nM; as for `CCOC(=O)[C@H](c1ccccc1)N1CCN(c2ccc(-n3ccn([C@H](C)c4ccc(C(F)(F)F)cc4)c3=O)cc2)CC1` (relative stereo) [Compound 270], 31.6 to 316 nM.
As for `CCOC(=O)[C@H](c1ccccc1)N1CCN(c2ccc(-n3ccn([C@@H](C)c4ccccc4F)c3=O)cc2)CC1` (relative stereo) [Compound 272], the IC50 is 316 to 3160 nM.
Consider `CCOC(=O)[C@@H](c1ccccc1)N1CCN(c2ccc(-n3ccn([C@H](C)c4ccc(F)cc4)c3=O)cc2)CC1` (relative stereo) [Compound 273], for which the concentration for half-maximal inhibition (IC50) is 316 to 3160 nM.
With `CCOC(=O)[C@@H](c1ccccc1)N1CCN(c2ccc(-n3ccn([C@@H](C)c4cc(C(F)(F)F)cc(C(F)(F)F)c4)c3=O)cc2)CC1` (relative stereo) [Compound 274], the concentration for half-maximal inhibition (IC50) is 316 to 3160 nM.
As for `CCOC(=O)[C@@H](c1ccccc1)N1CCN(c2ccc(-n3cnn([C@@H](C)c4ccccc4)c3=O)cc2)CC1` (relative stereo) [Compound 281], the figure is 31.6 to 316 nM; as for `CCOC(=O)[C@@H](c1ccccc1)N1CCN(c2ccc(-n3cnn([C@H](C)c4ccc(F)cc4)c3=O)cc2)CC1` (relative stereo) [Compound 298], 316 to 3160 nM; as for `CCOC(=O)[C@@H](c1ccccc1)N1CCN(c2ccc(-n3cnn([C@@H](C)c4ccc(F)cc4)c3=O)cc2)CC1` (relative stereo) [Compound 299], 31.6 to 316 nM.
For the compound `CCOC(=O)[C@H](c1ccccc1)N1CCN(c2ccc(-n3ccn([C@H](C)c4ccccc4F)c3=O)cc2)CC1` (stereo in doubt) [Compound 271], the IC50 is 31.6 to 316 nM.
Next, `CCOC(=O)[C@@H](c1ccccc1)N1CCN(c2ccc(-n3ccn([C@@H](C)c4ccccc4F)c3=O)cc2)CC1` (stereo in doubt) [Compound 275]: 316 to 3160 nM; `CCOC(=O)[C@@H](c1ccccc1)N1CCN(c2ccc(-n3cnn([C@H](C)c4ccccc4)c3=O)cc2)CC1` (stereo in doubt) [Compound 280]: 316 to 3160 nM; `CCOC(=O)[C@H](c1ccccc1)N1CCN(c2ccc(-n3cnn([C@@H](C)c4ccccc4)c3=O)cc2)CC1` (stereo in doubt) [Compound 304]: 31.6 to 316 nM.
On to `CCOC(=O)[C@H](c1ccccc1)N1CCN(c2ccc(-n3ccn(C(C)c4cccc(F)c4)c3=O)cc2)CC1` (stereo in doubt) [Compound 337], for which the IC50 was 31.6 to 316 nM.
For `CCOC(=O)[C@H](c1ccccc1)N1CCN(c2ccc(-n3ccn(C(C)c4cccc(F)c4F)c3=O)cc2)CC1` (stereo in doubt) [Compound 338], the 50% inhibitory concentration (IC50) is 31.6 to 316 nM.
As for `CCOC(=O)[C@H](c1ccccc1)N1CCN(c2ccc(-n3ccn(C(C)c4ccc(F)cc4F)c3=O)cc2)CC1` (stereo in doubt) [Compound 339], the figure is 31.6 to 316 nM; as for `CCOC(=O)[C@H](c1ccccc1)N1CCN(c2ccc(-n3ccn(C(C)c4cc(F)ccc4F)c3=O)cc2)CC1` (stereo in doubt) [Compound 340], 31.6 to 316 nM.
Next, `CCOC(=O)[C@H](c1ccccc1)N1CCN(c2ccc(-n3ccn(C(C)c4ccc(F)c(F)c4)c3=O)cc2)CC1` (stereo in doubt) [Compound 341]: 31.6 to 316 nM.
As for `CCOC(=O)[C@H](c1ccccc1)N1CCN(c2ccc(-n3ccn(C(C)c4cc(F)cc(F)c4)c3=O)cc2)CC1` (stereo in doubt) [Compound 342], the figure is 31.6 to 316 nM.
Take `CCCN(CCC)C(=O)C(CCN1CCN(c2ccc(-n3ncn(C(C)C)c3=O)cc2)CC1)c1ccccc1` (stereo not shown) [Compound 3]: the IC50 was 31.6 to 316 nM.
In the case of `COCCNC(=O)C(c1ccccc1)N1CCN(c2ccc(-n3cnn(C(C)C)c3=O)cn2)CC1` (stereo not shown) [Compound 4], the IC50 is 316 to 3160 nM.
As for `CC(C)n1cnn(-c2ccc(N3CCN(C(C(=O)Nc4ccccc4)c4ccccc4)CC3)cc2)c1=O` (stereo not shown) [Compound 5], the figure is 316 to 3160 nM; as for `CC(C)n1ncn(-c2ccc(N3CCN(CC(C(=O)N(C)C)c4ccccc4)CC3)cc2)c1=O` (stereo not shown) [Compound 6], 31.6 to 316 nM.
With `CC(C)NC(=O)C(c1ccccc1)N1CCN(c2ccc(-n3cnn(C(C)C)c3=O)cc2)CC1` (stereo not shown) [Compound 7], the 50% inhibitory concentration (IC50) is 31.6 to 316 nM.
Next, `CC(C)n1ncn(-c2ccc(N3CCN(C(C(=O)Nc4ccccc4)c4ccccc4)CC3)cc2)c1=O` (stereo not shown) [Compound 8]: 31.6 to 316 nM; `CCCC(C(=O)OCC)N1CCN(c2ccc(-n3cnn(C(C)C)c3=O)cc2)CC1` (stereo not shown) [Compound 9]: 316 to 3160 nM; `CC(C)n1ncn(-c2ccc(N3CCN(C(C(=O)Nc4ccncc4)c4ccccc4)CC3)cc2)c1=O` (stereo not shown) [Compound 10]: 316 to 3160 nM.
In the case of `CC(C)n1ncn(-c2ccc(N3CCN(C(C(=O)Nc4ccc5c(c4)CCC5)c4ccccc4)CC3)cc2)c1=O` (stereo not shown) [Compound 11], the IC50 is below 31.6 nM.
As for `Cc1cccc(NC(=O)C(c2ccccc2)N2CCN(c3ccc(-n4cnn(C(C)C)c4=O)cc3)CC2)n1` (stereo not shown) [Compound 12], the 50% inhibitory concentration (IC50) is 316 to 3160 nM.
`CCOC(=O)C(c1cccs1)N1CCN(c2ccc(-n3cnn(C(C)C)c3=O)cc2)CC1` (stereo not shown) [Compound 13]: the half-maximal inhibitory concentration (IC50) was 316 to 3160 nM.
`CC(C)n1ncn(-c2ccc(N3CCN(C(C(=O)Nc4cccc5cccnc45)c4ccccc4)CC3)cc2)c1=O` (stereo not shown) [Compound 15]: the IC50 was 316 to 3160 nM.
For `CC(C)n1ncn(-c2ccc(N3CCN(C(C(=O)Nc4cccnc4)c4ccccc4)CC3)cc2)c1=O` (stereo not shown) [Compound 16], the IC50 was 316 to 3160 nM.
As for `CCOC(=O)C(c1ccccc1)N1CCN(c2ccc(-n3cnn(C(C)C)c3=O)cc2)CC1` (stereo not shown) [Compound 17], the figure is 316 to 3160 nM; as for `CNC(=O)C(c1ccccc1)N1CCN(c2ccc(-n3cnn(C(C)C)c3=O)cn2)CC1` (stereo not shown) [Compound 18], 316 to 3160 nM; as for `CC(C)n1ncn(-c2ccc(C3CCN(C(C(=O)Nc4ccccc4)c4ccccc4)CC3)cc2)c1=O` (stereo not shown) [Compound 19], 31.6 to 316 nM.
Turning to `CC(C)n1ncn(-c2ccc(C3CCN(C(C(=O)NCc4ccccc4)c4ccccc4)CC3)cc2)c1=O` (stereo not shown) [Compound 20], the IC50 is 31.6 to 316 nM.
Consider `CCC(C)n1ncn(-c2ccc(N3CCN(C(C(=O)NC(C)C)c4ccccc4)CC3)cc2)c1=O` (stereo not shown) [Compound 21], for which the 50% inhibitory concentration (IC50) is 31.6 to 316 nM.
Turning to `CCC(C)n1ncn(-c2ccc(N3CCN(C(C(=O)NCc4ccccc4)c4ccccc4)CC3)cc2)c1=O` (stereo not shown) [Compound 22], the concentration for half-maximal inhibition (IC50) is 31.6 to 316 nM.
Turning to `CCC(C)n1ncn(-c2ccc(N3CCN(C(C(=O)Nc4ccccc4)c4ccccc4)CC3)cc2)c1=O` (stereo not shown) [Compound 23], the IC50 was 31.6 to 316 nM.
Next, `CCC(C)n1ncn(-c2ccc(N3CCN(C(C(=O)N(C)C)c4ccccc4)CC3)cc2)c1=O` (stereo not shown) [Compound 24]: 31.6 to 316 nM; `O=C(NCc1ccccc1)C(c1ccccc1)N1CCN(c2ccc(-n3nc(-c4ccccc4)n(-c4ccccc4)c3=O)cc2)CC1` (stereo not shown) [Compound 25]: 316 to 3160 nM; `CCNC(=O)C(c1ccccc1)N1CCN(c2ccc(-n3nc(-c4ccccc4)n(-c4ccccc4)c3=O)cc2)CC1` (stereo not shown) [Compound 26]: 316 to 3160 nM.
Next, `CCNC(=O)C(c1ccccc1)N1CCN(c2ccc(-n3c(-c4ccccc4)nn(-c4ccccc4)c3=O)cc2)CC1` (stereo not shown) [Compound 28]: 316 to 3160 nM; `COC(=O)C(c1ccccc1)N1CCN(c2ccc(-n3nc(-c4ccccc4)n(-c4ccccc4)c3=O)cc2)CC1` (stereo not shown) [Compound 29]: 316 to 3160 nM.
Next, `CCCNC(=O)C(c1ccccc1)N1CCN(c2ccc(-n3nc(-c4ccccc4)n(C(C)C)c3=O)cc2)CC1` (stereo not shown) [Compound 30]: 316 to 3160 nM; `CCNC(=O)C(c1ccccc1)N1CCN(c2ccc(-n3c(-c4ccccc4)nn(C(C)C)c3=O)cc2)CC1` (stereo not shown) [Compound 31]: 316 to 3160 nM; `CCCNC(=O)C(c1ccccc1)N1CCN(c2ccc(-n3c(-c4ccccc4)nn(C(C)C)c3=O)cc2)CC1` (stereo not shown) [Compound 32]: 316 to 3160 nM.
On to `CC(C)n1nc(-c2ccccc2)n(-c2ccc(N3CCN(C(C(=O)NCc4ccccc4)c4ccccc4)CC3)cc2)c1=O` (stereo not shown) [Compound 33], for which the concentration for half-maximal inhibition (IC50) is 316 to 3160 nM.
Turning to `COC(=O)C(c1ccccc1)N1CCN(c2ccc(-n3nc(-c4ccccc4)n(C(C)C)c3=O)cc2)CC1` (stereo not shown) [Compound 34], the half-maximal inhibitory concentration (IC50) is 316 to 3160 nM.
As for `COC(=O)C(c1ccccc1)N1CCN(c2ccc(-n3c(-c4ccccc4)nn(C(C)C)c3=O)cc2)CC1` (stereo not shown) [Compound 35], the figure is 316 to 3160 nM; as for `COC(=O)C(c1ccccc1)N1CCN(c2ccc(-n3ncn(C(C)C)c3=O)cc2)CC1` (stereo not shown) [Compound 36], 316 to 3160 nM; as for `CC(C)n1ncn(-c2ccc(N3CCN(C(C(=O)Nc4ccccc4)c4ccccc4)CC3)nc2)c1=O` (stereo not shown) [Compound 37], 316 to 3160 nM.
Next, `CCCOC(=O)C(c1ccccc1)N1CCN(c2ccc(-n3cnn(C(C)C)c3=O)cc2)CC1` (stereo not shown) [Compound 38]: 316 to 3160 nM; `CCNC(=O)C(c1ccccc1)N1CCN(c2ccc(-n3nc(C)n(C(C)C)c3=O)cc2)CC1` (stereo not shown) [Compound 39]: 316 to 3160 nM.

In general, IC50 refers to the concentration that gives 50% inhibition.

For the origin of these results see patent US7504400B2, “MTP inhibiting aryl piperydines or piperazines substituted with 5-membered heterocycles” (Janssen Pharmaceutica N.V., priority 2004, dated 2009).
